In patent US6150376A, “Bi- and tri-cyclic aza compounds and their uses” (Georgetown University, priority 1998, dated 2000):

Columns and labels:
serotonin transporter = target: T1, serotonin transporter (Rattus norvegicus, UniProt P31652); assay: [3H]5-HT uptake (re-uptake inhibition at the serotonin transporter); type: biochemical; details: for Ki: Ki ± SE, Krebs-Ringer-HEPES buffer; for 5-HT/DA (ratio of uptake Ki): ratio of 5-HT uptake Ki to DA uptake Ki
T1 construct: from tissue
Experimental: (§1) Various isomeric forms of front-bridged Compounds 4, 5, 29, 30, 31, 40 and 50a and back-bridged Compounds 41, 42a, 42b, 49a and 50a were assayed for binding at the dopamine transporter and for inhibition of monamine re-uptake at the dopamine, serotonin and norepinephrine transporters. Mazindol binding were measured as previously described in Johnson et. al., 1992, Eur. J. Pharmacol., Mol. Pharmacol. Sect., 227:411-415. Reuptake inhibition was measured essentially as described in Yi et. al., 1991, Neuropharmacol. 29:475-486, except that an identical Krebs-Ringer-HEPES buffer was used for binding and all uptake assays (Slusher et al., 1997, Drug Alcohol Depend. 48:43-50).

dopamine transporter [1] = target: T2, dopamine transporter (Rattus norvegicus, UniProt P23977); assay: [3H]Mazindol binding at the dopamine transporter; details: for Ki: Ki ± SE, Krebs-Ringer-HEPES buffer
T2 construct: from tissue
T2 sequence (P23977 whole entry): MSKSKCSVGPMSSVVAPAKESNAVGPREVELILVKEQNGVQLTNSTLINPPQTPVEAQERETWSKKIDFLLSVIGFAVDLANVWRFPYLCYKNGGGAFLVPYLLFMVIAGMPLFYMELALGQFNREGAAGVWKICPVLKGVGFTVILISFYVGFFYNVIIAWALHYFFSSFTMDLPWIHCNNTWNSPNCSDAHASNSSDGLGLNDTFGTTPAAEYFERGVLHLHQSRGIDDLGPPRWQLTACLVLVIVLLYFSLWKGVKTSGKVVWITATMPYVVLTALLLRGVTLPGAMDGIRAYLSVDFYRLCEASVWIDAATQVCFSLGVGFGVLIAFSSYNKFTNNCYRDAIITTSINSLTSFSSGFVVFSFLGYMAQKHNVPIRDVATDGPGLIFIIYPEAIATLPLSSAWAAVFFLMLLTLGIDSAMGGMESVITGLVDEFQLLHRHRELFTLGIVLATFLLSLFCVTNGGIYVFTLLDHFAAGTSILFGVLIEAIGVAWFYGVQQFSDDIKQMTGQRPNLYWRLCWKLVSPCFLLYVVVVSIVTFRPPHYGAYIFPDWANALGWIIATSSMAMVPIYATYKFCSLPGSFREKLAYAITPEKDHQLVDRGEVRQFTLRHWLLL
Experimental: as §1

dopamine transporter [2] = target: T2, dopamine transporter; assay: [3H]DA uptake (re-uptake inhibition at the dopamine transporter); type: biochemical; details: for Ki: Ki ± SE, Krebs-Ringer-HEPES buffer; for higher activity / selectivity at the DAT over the 5-HTT: reuptake inhibition, DAT over 5-HTT
Experimental: as §1

[3] = target: T3, norepinephrine transporter (Rattus norvegicus, UniProt Q63380); assay: [3H]NE uptake (re-uptake inhibition at the norepinephrine transporter); type: biochemical; details: Ki ± SE; Krebs-Ringer-HEPES buffer
T3 construct: from tissue
T3 sequence (Q63380 1-617): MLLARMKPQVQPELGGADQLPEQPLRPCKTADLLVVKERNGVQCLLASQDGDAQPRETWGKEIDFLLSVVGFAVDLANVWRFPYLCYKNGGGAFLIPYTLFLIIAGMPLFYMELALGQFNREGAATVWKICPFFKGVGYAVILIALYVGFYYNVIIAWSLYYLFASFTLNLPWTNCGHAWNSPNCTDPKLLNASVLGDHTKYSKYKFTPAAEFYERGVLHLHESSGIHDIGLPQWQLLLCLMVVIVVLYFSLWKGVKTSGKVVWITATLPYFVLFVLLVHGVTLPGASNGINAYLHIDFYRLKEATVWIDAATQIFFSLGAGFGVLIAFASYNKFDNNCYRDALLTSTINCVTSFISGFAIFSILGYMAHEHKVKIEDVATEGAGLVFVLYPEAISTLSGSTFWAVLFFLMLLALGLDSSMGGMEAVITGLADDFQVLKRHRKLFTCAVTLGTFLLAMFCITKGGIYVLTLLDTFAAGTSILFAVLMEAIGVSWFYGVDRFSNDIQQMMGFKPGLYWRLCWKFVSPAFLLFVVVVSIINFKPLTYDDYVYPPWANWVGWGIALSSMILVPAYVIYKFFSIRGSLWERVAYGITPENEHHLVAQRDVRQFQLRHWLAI
Experimental: as §1

[4] = Preskorn, 1994; cited from earlier work
[5] = tested on: serotonin and norepinephrine re-uptake; details: in words; cited from earlier work

T1 sequence (P31652 whole entry): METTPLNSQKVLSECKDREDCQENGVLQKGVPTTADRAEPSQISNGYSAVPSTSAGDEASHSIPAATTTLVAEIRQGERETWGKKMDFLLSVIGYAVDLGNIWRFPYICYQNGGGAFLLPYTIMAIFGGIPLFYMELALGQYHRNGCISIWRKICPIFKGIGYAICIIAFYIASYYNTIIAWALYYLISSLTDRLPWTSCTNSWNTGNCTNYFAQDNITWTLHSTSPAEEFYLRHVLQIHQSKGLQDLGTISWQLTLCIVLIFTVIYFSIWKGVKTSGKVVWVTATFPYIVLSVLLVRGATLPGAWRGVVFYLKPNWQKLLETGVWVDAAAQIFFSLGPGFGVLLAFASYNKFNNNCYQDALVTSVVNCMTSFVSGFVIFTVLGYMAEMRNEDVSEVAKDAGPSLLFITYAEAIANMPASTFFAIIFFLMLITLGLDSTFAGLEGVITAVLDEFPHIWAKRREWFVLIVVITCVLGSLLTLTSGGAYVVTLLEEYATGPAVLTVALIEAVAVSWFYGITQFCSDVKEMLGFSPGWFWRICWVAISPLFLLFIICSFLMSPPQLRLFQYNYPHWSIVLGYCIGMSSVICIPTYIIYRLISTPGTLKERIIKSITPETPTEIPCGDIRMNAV

Compound | Ki (serotonin transporter) [nM] | 5-HT/DA (ratio of uptake Ki) (serotonin transporter) | Ki (dopamine transporter [1]) [nM] | Ki (dopamine transporter [2]) [nM] | Ki [3] [nM] | binding potency relative to (-)-40 (dopamine transporter [1]; in words) | higher activity / selectivity at the DAT over the 5-HTT (dopamine transporter [2]) [fold] | more active at the 5-HTT (5-HTT/NET selectivity) (serotonin transporter; reuptake inhibition, 5-HTT over NET) [fold] | time to full antidepressant effect [4] [days] | selectivity for serotonin (dual serotonin and norepinephrine re-uptake inhibitor) [5]
CCCC[C@@H]1CC[C@@H]2C3CN[C@H]2C[C@@]31c1ccc(C)cc1 (racemic) [Compound 42a, (1SR, 3SR, 4RS, 5SR, 7RS)-4-butyl-3-(4-methylphenyl)-10-azatricyclo[5.3.0.0^3,8]decane] | 14 ± 0.58 | 6.3 | 4 ± 0.07 | 2.23 ± 0.12 | 2.99 ± 0.17 |  |  |  |  | 
Cc1ccc(C2CC3CCC4C2c2ccccc2CN34)cc1 (racemic) [Compound 45] | 1.77 | 0.074 | 6.86 ± 0.43 | 23.9 ± 1.33 | 1.06 ± 0.03 |  |  |  |  | 
C=C1CN2C3CCC2C1C(c1ccc(C)cc1)C3 (racemic) [Compound (±)-40] | 2.32 ± 0.23 | 0.038 | 61.7 ± 8.5 | 60.3 | 2.69 ± 0.12 | only slightly decreased from that of the (-)-40 |  |  |  | 
O=C1CN2CCC(c3ccc(Cl)cc3)C1C2 (stereo not drawn) [Compound (+)-4] | 4630 ± 760 | 0.16 | 18500 ± 2700 | 27600 ± 1000 | 38300 ± 4610 |  |  |  |  | 
O=C1CN2CCC(c3ccc(Cl)cc3)C1C2 (stereo not drawn) [Compound (+)-5] | 25100 ± 3600 | 2.4 | 6770 ± 500 | 10500 ± 450 | 4530 ± 410 |  | 2.4 |  |  | 
O=C1CN2CCC(c3ccc(Cl)cc3)C1C2 (stereo not drawn) [Compound (-)-4] | 1890 ± 440 | 0.11 | 10500 ± 930 | 16500 ± 970 | 70900 ± 18000 |  |  | 38 |  | 
O=C1CN2CCC(c3ccc(Cl)cc3)C1C2 (stereo not drawn) [Compound (-)-5] | 11900 ± 610 | 1.3 | 9740 ± 160 | 9050 ± 460 | 4650 ± 440 |  | 1.3 |  |  | 
COc1ccc(C(CN(C)C)C2(O)CCCCC2)cc1 (stereo not drawn) [venlafaxine] |  |  |  |  |  |  |  |  | 4 to 7 | five-fold selectivity for serotonin
(1R, 2S, 4R, 7S)-(-)-10-methylene-2-(p-tolyl)-8-azatricyclo [5.2.0.0^4.8 ] decane [Compound (-)-40] | 1.76 | 0.029 | 54.3 ± 10.2 | 60.3 ± 0.4 | 5.24 ± 0.07 |  |  |  |  | 
(1SR, 2SR, 3RS, 5RS, 7SR)-2-butyl-methylphenyl)-10-azatricyclo [5.3.0.0^5,10 ]decane [Compound 50a] | 810 ± 79.5 | 5.4 | 149 ± 5.75 | 149 ± 2.13 | 51.7 ± 12 |  |  |  |  | 
